{"source": "patent US20100255580A1", "about": "“Differentiation of Human Embryonic Stem Cells” (LIFESCCAN, INC., priority 2007, published 2010)", "test_system": "H9 embryonic stem cells", "format": "cell-based, human", "details": "DE treatment in low serum", "protocol": "Controls for each group included cells plated on […]-coated dishes and cultured in MEF-conditioned medium or cells plated on MEFs and cultured in ES medium. All groups contained three biological replicates and each biological replicate was repeated on two separate gene chips.\nSample preparation, hybridization, and image analysis were performed according to the Affymetrix Human Genome U133 Plus 2.0 Array. Following normalization and a log transformation, data analysis was performed using OmniViz® software (MA) and […] (VizXLabs, WA). Significant differences in gene expression between the samples were evaluated using analysis of variance and an F-test with adjusted P-value (Benjamini and\nHochberg correction) of ≦b 0.05. Only genes with a present call in at least one group were included in the analysis.", "note": "Read-outs that look alike come from different tables or passages of the source.", "data": [{"substance": "Activin A: a member of the TGFβ superfamily; R&D Systems; Group 2 = Activin A (100 ng/ml)", "values": [{"measurement": "mean normalized intensity (log format), gene: DKFZP566K1924 protein", "setting": "on MATRIGEL", "result": 2.882}, {"measurement": "mean normalized intensity (log format), gene: ESTs (r2006)", "setting": "on MATRIGEL", "result": 1.5857}, {"measurement": "mean normalized intensity (log format), gene: ESTs (r2025)", "setting": "on MATRIGEL", "result": 1.531}, {"measurement": "mean normalized intensity (log format), gene: ESTs (r2032)", "setting": "on MATRIGEL", "result": 0.1336}, {"measurement": "mean normalized intensity (log format), gene: ESTs (r2038)", "setting": "on MATRIGEL", "result": 3.262}, {"measurement": "mean normalized intensity (log format), gene: ESTs (r2134)", "setting": "on MATRIGEL", "result": "−1.3795"}, {"measurement": "mean normalized intensity (log format), gene: ESTs (r2148)", "setting": "on MATRIGEL", "result": 4.454}, {"measurement": "mean normalized intensity (log format), gene: ESTs, Moderately similar to ALU2_HUMAN ALU SUBFAMILY SB SEQUENCE CONTAMINATION WARNING ENTRY (H. sapiens)", "setting": "on MATRIGEL", "result": 4.241}, {"measurement": "mean normalized intensity (log format), gene: H. sapiens mRNA for B-HLH DNA binding protein.", "setting": "on MATRIGEL", "result": 5.43}, {"measurement": "mean normalized intensity (log format), gene: Homo sapiens BCL2-interacting killer (apoptosis-inducing) (BIK), mRNA.", "setting": "on MATRIGEL", "result": 4.3}, {"measurement": "mean normalized intensity (log format), gene: Homo sapiens Charot-Leyden crystal protein (CLC), mRNA.", "setting": "on MATRIGEL", "result": 3.301}, {"measurement": "mean normalized intensity (log format), gene: Homo sapiens HES-related repressor protein 1 HERP1 mRNA, complete cds.", "setting": "on MATRIGEL", "result": 2.806}, {"measurement": "mean normalized intensity (log format), gene: Homo sapiens HSPC156 protein (HSPC156), mRNA.", "setting": "on MATRIGEL", "result": 0.7862}, {"measurement": "mean normalized intensity (log format), gene: Homo sapiens KIAA0469 gene product (KIAA0469), mRNA.", "setting": "on MATRIGEL", "result": 4.031}, {"measurement": "mean normalized intensity (log format), gene: Homo sapiens PNAS-123 mRNA, complete cds", "setting": "on MATRIGEL", "result": 1.597}, {"measurement": "mean normalized intensity (log format), gene: Homo sapiens Wilms tumor 1 (WT1), transcript variant D, mRNA.", "setting": "on MATRIGEL", "result": 2.405}, {"measurement": "mean normalized intensity (log format), gene: Homo sapiens cDNA FLJ11398 fis, clone HEMBA1000637.", "setting": "on MATRIGEL", "result": 2.5268}, {"measurement": "mean normalized intensity (log format), gene: Homo sapiens cDNA: FLJ22547 fis, clone HSI00356", "setting": "on MATRIGEL", "result": 4.294}, {"measurement": "mean normalized intensity (log format), gene: Homo sapiens cadherin 6, type 2, K-cadherin (fetal kidney) (CDH6), mRNA.", "setting": "on MATRIGEL", "result": 0.8248}, {"measurement": "mean normalized intensity (log format), gene: Homo sapiens chorionic somatomammotropin hormone 2 (CSH2), transcript variant 1, mRNA.", "setting": "on MATRIGEL", "result": 1.124}, {"measurement": "mean normalized intensity (log format), gene: Homo sapiens chorionic somatomammotropin hormone 2 (CSH2), transcript variant 4, mRNA.", "setting": "on MATRIGEL", "result": 0.8122}, {"measurement": "mean normalized intensity (log format), gene: Homo sapiens galanin receptor 1 (GALR1), mRNA.", "setting": "on MATRIGEL", "result": 2.507}, {"measurement": "mean normalized intensity (log format), gene: Homo sapiens growth hormone 2 (GH2), transcript variant 2, mRNA.", "setting": "on MATRIGEL", "result": 0.9226}, {"measurement": "mean normalized intensity (log format), gene: Homo sapiens hypothetical protein FLJ20075 (FLJ20075), mRNA.", "setting": "on MATRIGEL", "result": "−0.3592"}, {"measurement": "mean normalized intensity (log format), gene: Homo sapiens mRNA for SCCA2b, complete cds.", "setting": "on MATRIGEL", "result": 3.329}, {"measurement": "mean normalized intensity (log format), gene: Homo sapiens mRNA; cDNA DKFZp586P1124 (from clone DKFZp586P1124)", "setting": "on MATRIGEL", "result": 0.4856}, {"measurement": "mean normalized intensity (log format), gene: Homo sapiens methyl-CpG binding protein MBD2 (MBD2) mRNA, complete cds.", "setting": "on MATRIGEL", "result": 0.4906}, {"measurement": "mean normalized intensity (log format), gene: Homo sapiens tachykinin, precursor 1 (TAC1), transcript variant beta, mRNA.", "setting": "on MATRIGEL", "result": 2.773}, {"measurement": "mean normalized intensity (log format), gene: Homo sapiens testis expressed sequence 14 (TEX14), mRNA.", "setting": "on MATRIGEL", "result": 3.512}, {"measurement": "mean normalized intensity (log format), gene: Homo sapiens, Similar to LIM homeobox protein 8, clone IMAGE: 4839343, mRNA.", "setting": "on MATRIGEL", "result": "−0.06288"}, {"measurement": "mean normalized intensity (log format), gene: Homo sapiens, Similar to cadherin 6, type 2, K-cadherin (fetal kidney), clone MGC: 1470, mRNA, complete cds.", "setting": "on MATRIGEL", "result": 2.547}, {"measurement": "mean normalized intensity (log format), gene: Homo sapiens, Similar to hypothetical protein FLJ10058, clone MGC: 34305 IMAGE: 5167647, mRNA, complete cds.", "setting": "on MATRIGEL", "result": 1.698}, {"measurement": "mean normalized intensity (log format), gene: Homo sapiens, Similar to hypothetical protein FLJ32001, clone MGC: 39559 IMAGE: 4828136, mRNA, complete cds.", "setting": "on MATRIGEL", "result": 0.5207}, {"measurement": "mean normalized intensity (log format), gene: Homo sapiens, clone IMAGE: 4067166, mRNA", "setting": "on MATRIGEL", "result": 0.1959}, {"measurement": "mean normalized intensity (log format), gene: Homo sapiens, clone IMAGE: 4828836, mRNA.", "setting": "on MATRIGEL", "result": 0.9729}, {"measurement": "mean normalized intensity (log format), gene: Homo sapiens, serine (or cysteine) proteinase inhibitor, clade B (ovalbumin), member 3, clone MGC: 12244, mRNA, complete cds.", "setting": "on MATRIGEL", "result": 1.969}, {"measurement": "mean normalized intensity (log format), gene: Human mRNA upregulated during camptothecin-induced apoptosis of U937 cells.", "setting": "on MATRIGEL", "result": 0.4945}, {"measurement": "mean normalized intensity (log format), gene: Human platelet-derived growth factor alpha-receptor (PDGFRA) mRNA, exons 13-16", "setting": "on MATRIGEL", "result": 2.445}, {"measurement": "mean normalized intensity (log format), gene: KIAA1151 protein", "setting": "on MATRIGEL", "result": 0.6425}, {"measurement": "mean normalized intensity (log format), gene: caldesmon 1", "setting": "on MATRIGEL", "result": 7.092}, {"measurement": "mean normalized intensity (log format), gene: nuclear receptor subfamily 1, group I, member 3", "setting": "on MATRIGEL", "result": 1.779}, {"measurement": "mean normalized intensity (log format), gene: paternally expressed 3 (r2033)", "setting": "on MATRIGEL", "result": 2.876}, {"measurement": "mean normalized intensity (log format), gene: paternally expressed 3 (r2093)", "setting": "on MATRIGEL", "result": 2.874}, {"measurement": "mean normalized intensity (log format), gene: DKFZP566K1924 protein", "setting": "on MEFS", "result": 1.391}, {"measurement": "mean normalized intensity (log format), gene: ESTs (r2006)", "setting": "on MEFS", "result": "−1.3"}, {"measurement": "mean normalized intensity (log format), gene: ESTs (r2025)", "setting": "on MEFS", "result": 1.373}, {"measurement": "mean normalized intensity (log format), gene: ESTs (r2032)", "setting": "on MEFS", "result": "−1.566"}, {"measurement": "mean normalized intensity (log format), gene: ESTs (r2038)", "setting": "on MEFS", "result": 1.5682}, {"measurement": "mean normalized intensity (log format), gene: ESTs (r2134)", "setting": "on MEFS", "result": "−0.9461"}, {"measurement": "mean normalized intensity (log format), gene: ESTs (r2148)", "setting": "on MEFS", "result": 5.334}, {"measurement": "mean normalized intensity (log format), gene: ESTs, Moderately similar to ALU2_HUMAN ALU SUBFAMILY SB SEQUENCE CONTAMINATION WARNING ENTRY (H. sapiens)", "setting": "on MEFS", "result": 3.874}, {"measurement": "mean normalized intensity (log format), gene: H. sapiens mRNA for B-HLH DNA binding protein.", "setting": "on MEFS", "result": 3.451}, {"measurement": "mean normalized intensity (log format), gene: Homo sapiens BCL2-interacting killer (apoptosis-inducing) (BIK), mRNA.", "setting": "on MEFS", "result": 3.562}, {"measurement": "mean normalized intensity (log format), gene: Homo sapiens Charot-Leyden crystal protein (CLC), mRNA.", "setting": "on MEFS", "result": 2.1096}, {"measurement": "mean normalized intensity (log format), gene: Homo sapiens HES-related repressor protein 1 HERP1 mRNA, complete cds.", "setting": "on MEFS", "result": 2.406}, {"measurement": "mean normalized intensity (log format), gene: Homo sapiens HSPC156 protein (HSPC156), mRNA.", "setting": "on MEFS", "result": 1.296}, {"measurement": "mean normalized intensity (log format), gene: Homo sapiens KIAA0469 gene product (KIAA0469), mRNA.", "setting": "on MEFS", "result": 2.565}, {"measurement": "mean normalized intensity (log format), gene: Homo sapiens PNAS-123 mRNA, complete cds", "setting": "on MEFS", "result": 1.847}, {"measurement": "mean normalized intensity (log format), gene: Homo sapiens Wilms tumor 1 (WT1), transcript variant D, mRNA.", "setting": "on MEFS", "result": "−2.435"}, {"measurement": "mean normalized intensity (log format), gene: Homo sapiens cDNA FLJ11398 fis, clone HEMBA1000637.", "setting": "on MEFS", "result": 1.849}, {"measurement": "mean normalized intensity (log format), gene: Homo sapiens cDNA: FLJ22547 fis, clone HSI00356", "setting": "on MEFS", "result": 2.095}, {"measurement": "mean normalized intensity (log format), gene: Homo sapiens cadherin 6, type 2, K-cadherin (fetal kidney) (CDH6), mRNA.", "setting": "on MEFS", "result": "−0.8763"}, {"measurement": "mean normalized intensity (log format), gene: Homo sapiens chorionic somatomammotropin hormone 2 (CSH2), transcript variant 1, mRNA.", "setting": "on MEFS", "result": 2.616}, {"measurement": "mean normalized intensity (log format), gene: Homo sapiens chorionic somatomammotropin hormone 2 (CSH2), transcript variant 4, mRNA.", "setting": "on MEFS", "result": 2.218}, {"measurement": "mean normalized intensity (log format), gene: Homo sapiens galanin receptor 1 (GALR1), mRNA.", "setting": "on MEFS", "result": "−0.338"}, {"measurement": "mean normalized intensity (log format), gene: Homo sapiens growth hormone 2 (GH2), transcript variant 2, mRNA.", "setting": "on MEFS", "result": 1.4679}, {"measurement": "mean normalized intensity (log format), gene: Homo sapiens hypothetical protein FLJ20075 (FLJ20075), mRNA.", "setting": "on MEFS", "result": "−0.06528"}, {"measurement": "mean normalized intensity (log format), gene: Homo sapiens mRNA for SCCA2b, complete cds.", "setting": "on MEFS", "result": 0.568}, {"measurement": "mean normalized intensity (log format), gene: Homo sapiens mRNA; cDNA DKFZp586P1124 (from clone DKFZp586P1124)", "setting": "on MEFS", "result": "−3.094"}]}]}
